US20110224210A1, “NOVEL BIS-AMIDES AS ANTI-MALARIAL AGENTS” (priority 2008, published 2011)

The compounds below were run on P. falciparum K1 (strain resistant to chloroquine and pyrimethamine), erythrocytic stages (assay: Plasmodium falciparum in vitro assay, [3H] hypoxanthine incorporation). Conditions: Plasmodium falciparum, K1, P. falciparum strain K1; [3H] hypoxanthine incorporation; read-out: IC50 (nM) on K1.
Assay type: cell-based
How it was run: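 Chloroquine/pyrimethamine-resistant K1 erythrocytic cultures (2.5% haematocrit, 0.3% parasitaemia, hypoxanthine-free RPMI with Albumax) exposed to seven doubling dilutions at 37 °C under low O2.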
For `CN(CCN(C)C(=O)[C@H](Cc1ccccc1)N(Cc1ccc(-c2ccccn2)cc1)C(=O)C=Cc1ccc(C(F)(F)F)cc1)Cc1ccco1` [Example 223, (S)-N-(1-{[2-(Furan-2-ylmethyl-methyl-amino)-ethyl]-methyl-carbamoyl}-2-phenyl-ethyl)-N-(4-pyridin-2-yl-benzyl)-3-(4-trifluoromethyl-phenyl)-acrylamide], the IC50 was 25 nM.
For `C=CCOCCN(C)C(=O)[C@H](Cc1ccccc1)N(Cc1ccc(N2CCN(C(C)=O)CC2)cc1)C(=O)C=Cc1ccc(C(F)(F)F)nc1` [Example 218, (S)-N-[4-(4-Acetyl-piperazin-1-yl)-benzyl]-N-{1-[(2-allyloxy-ethyl)-methyl-carbamoyl]-2-phenyl-ethyl}-3-(6-trifluoromethyl-pyridin-3-yl)-acrylamide], the IC50 was 40 nM.
`CN(CCN(C)C(=O)[C@H](Cc1ccccc1)N(Cc1ccc(N2CCOCC2)cc1)C(=O)C=Cc1ccc(C(F)(F)F)cc1)Cc1ccc2c(c1)OCCN2C` [Example 263, (S)-N-[1-(Methyl-{2-[methyl-(4-methyl-3,4-dihydro-2H-benzo[1,4]oxazin-7-ylmethyl)-amino]-ethyl}-carbamoyl)-2-phenyl-ethyl]-N-(4-morpholin-4-yl-benzyl)-3-(4-trifluoromethyl-phenyl)-acrylamide] gave an IC50 of 72 nM.
Work on `COCCN(C)C(=O)[C@H](Cc1ccccc1)N(Cc1ccc(N2CCN(C(C)=O)CC2)cc1)C(=O)C=Cc1cnc(C)n1C` [Example 106, (S)-N-[4-(4-Acetyl-piperazin-1-yl)-benzyl]-3-(2,3-dimethyl-3H-imidazol-4-yl)-N-{1-[(2-methoxy-ethyl)-methyl-carbamoyl]-2-phenyl-ethyl}-acrylamide] yielded an IC50 of 470 nM.
`CN(C(=O)[C@H](Cc1ccccc1)N(Cc1ccc(-c2ccccn2)cc1)C(=O)C=Cc1ccc(C(F)(F)F)cc1)[C@H]1CCN(Cc2ccccc2)C1` [Example 172, N-{1-[((S)-1-Benzyl-pyrrolidin-3-yl)-methyl-carbamoyl]-(S)-2-phenyl-ethyl}-N-(4-pyridin-2-yl-benzyl)-3-(4-trifluoromethyl-phenyl)-acrylamide] gave an IC50 of 89 nM.
Compound `CN(C)C1CCN(C(=O)[C@H](Cc2ccccc2)N(Cc2ccc(-c3ccccn3)cc2)C(=O)C=Cc2ccc(C(F)(F)F)cn2)CC1` [Example 17, (S)-N-[1-Benzyl-2-(4-dimethylamino-piperidin-1-yl)-2-oxo-ethyl]-N-(4-pyridin-2-yl-benzyl)-3-(5-trifluoromethyl-pyridin-2-yl)-acrylamide] has an IC50 of 113 nM.
For `O=C(NCCN1CCCCC1)[C@H](Cc1ccccc1)N(Cc1ccc(-c2ccccn2)cc1)C(=O)C=Cc1ccc(C(F)(F)F)cc1` [Example 153], the IC50 was 268 nM.
`COCCN(C)C(=O)C(CN1CCOC1=O)N(Cc1ccc(-c2ccncc2)cc1)C(=O)C=Cc1ccc(C(F)(F)F)cc1` (racemic) [Example 284] showed an IC50 of 362 nM.
`CC(=O)N1CCN(c2ccc(CN(C(=O)C=Cc3ccc(C(F)(F)F)cc3)[C@@H](Cc3ccccc3)C(=O)N(C)CCN(C)Cc3ccc(O)cc3)cc2)CC1` [Example 238, (S)-N-[4-(4-Acetyl-piperazin-1-yl)-benzyl]-N-[1-({2-[(4-hydroxy-benzyl)-methyl-amino]-ethyl}-methyl-carbamoyl)-2-phenyl-ethyl]-3-(4-trifluoromethyl-phenyl)-acrylamide] showed an IC50 of 27 nM.
Compound `CC(=O)N1CCN(c2ccc(CN(C(=O)C=Cc3ccc(C(F)(F)F)cc3)[C@@H](Cc3ccccc3)C(=O)N(C)CCOCc3cc(C)on3)cc2)CC1` [Example 204, (S)-N-[4-(4-Acetyl-piperazin-1-yl)-benzyl]-N-(1-{methyl-[2-(5-methyl-isoxazol-3-ylmethoxy)-ethyl]-carbamoyl}-2-phenyl-ethyl)-3-(4-trifluoromethyl-phenyl)-acrylamide] has an IC50 of 9 nM.
`CCOCCN(C)C(=O)[C@H](Cc1ccccc1)N(Cc1ccc(N2CCOCC2)cc1)C(=O)C=Cc1ccc(C(F)(F)F)cc1` [Example 192, (S)-N-{1-[(2-Ethoxy-ethyl)-methyl-carbamoyl]-2-phenyl-ethyl}-N-(4-morpholin-4-yl-benzyl)-3-(4-trifluoromethyl-phenyl)-acrylamide] showed an IC50 of 19 nM.
`COCCN(C)C(=O)[C@H](Cc1ccccc1)N(Cc1ccc(-c2ccncc2)cc1)C(=O)C=Cc1ccc(C)cn1` [Example 100, (S)-N-{1-[(2-Methoxy-ethyl)-methyl-carbamoyl]-2-phenyl-ethyl}-3-(5-methyl-pyridin-2-yl)-N-(4-pyridin-4-yl-benzyl)-acrylamide] gave an IC50 of 12 nM.
For `CN(Cc1ccc(N2CCCC2=O)cc1)C(=O)[C@H](Cc1ccccc1)N(Cc1ccc(N2CCOCC2)cc1)C(=O)C=Cc1ccc(C(F)(F)F)nc1` [Example 272], the IC50 was 80 nM.
Compound `Cc1ccc(CN(C)CCN(C)C(=O)[C@H](Cc2ccccc2)N(Cc2ccc(N3CCOCC3)cc2)C(=O)C=Cc2ccc(C(F)(F)F)cc2)c(F)c1F` [Example 268, (S)-N-[1-({2-[(2,3-Difluoro-4-methyl-benzyl)-methyl-amino]-ethyl}-methyl-carbamoyl)-2-phenyl-ethyl]-N-(4-morpholin-4-yl-benzyl)-3-(4-trifluoromethyl-phenyl)-acrylamide] has an IC50 of 80 nM.
With `COCCN(C)C(=O)[C@H](Cc1ccccc1)N(Cc1ccc(-c2cncnc2)cc1)C(=O)C=Cc1csnn1` [Example 125, (S)-N-{1-[(2-Methoxy-ethyl)-methyl-carbamoyl]-2-phenyl-ethyl}-N-(4-pyrimidin-5-yl-benzyl)-3-[1,2,3]thiadiazol-4-yl-acrylamide] the IC50 was 439 nM.
`CN(C)CCNC(=O)[C@H](Cc1ccccc1)N(Cc1ccc(-c2ccccn2)cc1)C(=O)C=Cc1ccc(C(F)(F)F)cc1` [Example 156] showed an IC50 of 382 nM.
`COCCN(C)C(=O)[C@H](Cc1ccccc1)N(Cc1ccc(-c2ccncc2)cc1)C(=O)C=Cc1cnc(C)n1C` [Example 92, (S)-3-(2,3-Dimethyl-3H-imidazol-4-yl)-N-{1-[(2-methoxy-ethyl)-methyl-carbamoyl]-2-phenyl-ethyl}-N-(4-pyridin-4-yl-benzyl)-acrylamide] gave an IC50 of 23 nM.
With `COc1cccc(COCCN(C)C(=O)[C@H](Cc2ccccc2)N(Cc2ccc(N3CCN(C(C)=O)CC3)cc2)C(=O)C=Cc2ccc(C(F)(F)F)cc2)c1` [Example 187, (S)-N-[4-(4-Acetyl-piperazin-1-yl)-benzyl]-N-(1-{[2-(3-methoxy-benzyloxy)-ethyl]-methyl-carbamoyl}-2-phenyl-ethyl)-3-(4-trifluoromethyl-phenyl)-acrylamide, formic acid] the IC50 was 7 nM.
`COCCN(C)C(=O)[C@H](Cc1ccccc1)N(Cc1ccc(-c2cncnc2)cc1)C(=O)C=Cc1ccn(C)n1` [Example 119, (S)-N-{1-[(2-Methoxy-ethyl)-methyl-carbamoyl]-2-phenyl-ethyl}-3-(1-methyl-1H-pyrazol-3-yl)-N-(4-pyrimidin-5-yl-benzyl)-acrylamide] showed an IC50 of 81 nM.
`CN(CCN(C)C(=O)[C@H](Cc1ccccc1)N(Cc1ccc(-c2ccccn2)cc1)C(=O)C=Cc1ccc(C(F)(F)F)cc1)Cc1ccc(CO)o1` [Example 228, (S)-N-[1-({2-[(5-Hydroxymethyl-furan-2-ylmethyl)-methyl-amino]-ethyl}-methyl-carbamoyl)-2-phenyl-ethyl]-N-(4-pyridin-2-yl-benzyl)-3-(4-trifluoromethyl-phenyl)-acrylamide] showed an IC50 of 9 nM.
With `CN(C)C1CCN(C(=O)[C@H](Cc2ccccc2)N(Cc2ccc(-c3cncnc3)cc2)C(=O)C=Cc2ccc(Cl)nc2)CC1` [Example 40, (S)-N-[1-Benzyl-2-(4-dimethylamino-piperidin-1-yl)-2-oxo-ethyl]-3-(6-chloro-pyridin-3-yl)-N-(4-pyrimidin-5-yl-benzyl)-acrylamide] the IC50 was 490 nM.
Work on `CN(CCOCc1ccc(OC(F)F)cc1)C(=O)[C@H](Cc1ccccc1)N(Cc1ccc(N2CCOCC2)cc1)C(=O)C=Cc1ccc(C(F)(F)F)cc1` [Example 201, (S)-N-(1-{[2-(4-Difluoromethoxy-benzyloxy)-ethyl]-methyl-carbamoyl}-2-phenyl-ethyl)-N-(4-morpholin-4-yl-benzyl)-3-(4-trifluoromethyl-phenyl)-acrylamide] yielded an IC50 of 32 nM.
`COCCN(C)C(=O)[C@H](Cc1ccccc1)N(Cc1ccc(-c2ccncc2)cc1)C(=O)C=Cc1c(C)noc1C` [Example 96, (S)-3-(3,5-Dimethyl-isoxazol-4-yl)-N-{1-[(2-methoxy-ethyl)-methyl-carbamoyl]-2-phenyl-ethyl}-N-(4-pyridin-4-yl-benzyl)-acrylamide] showed an IC50 of 20 nM.
`CN(CCN(C)C(=O)[C@H](Cc1ccccc1)N(Cc1ccc(-c2ccccn2)cc1)C(=O)C=Cc1ccc(C(F)(F)F)cc1)Cc1ccccc1` [Example 220, (S)-N-(1-{[2-(Benzyl-methyl-amino)-ethyl]-methyl-carbamoyl}-2-phenyl-ethyl)-N-(4-pyridin-2-yl-benzyl)-3-(4-trifluoromethyl-phenyl)-acrylamide] showed an IC50 of 29 nM.
`COc1ccc(C=CC(=O)N(Cc2ccc(N3CCOCC3)nc2)[C@@H](Cc2ccccc2)C(=O)N2CCOCC2)cc1` [Example 148, (S)-N-(1-Benzyl-2-morpholin-4-yl-2-oxo-ethyl)-3-(4-methoxy-phenyl)-N-(6-morpholin-4-yl-pyridin-3-ylmethyl)-acrylamide] was tested, and the IC50 was 65 nM.
In the case of `COCCN(C)C(=O)[C@H](Cc1ccccc1)N(Cc1ccc(N2CCN(C(C)=O)CC2)cc1)C(=O)C=Cc1c(C)nn(C)c1C` [Example 105, (S)-N-[4-(4-Acetyl-piperazin-1-yl)-benzyl]-N-{1-[(2-methoxy-ethyl)-methyl-carbamoyl]-2-phenyl-ethyl}-3-(1,3,5-trimethyl-1H-pyrazol-4-yl)-acrylamide], the IC50 is reported as 44 nM.
In the case of `Cc1nn(C)c(C)c1C=CC(=O)N(Cc1ccc(N2CCOCC2)cc1)[C@@H](Cc1ccccc1)C(=O)N1CCC(N(C)C)CC1` [Example 1, (S)-N-[1-Benzyl-2-(4-dimethylamino-piperidin-1-yl)-2-oxo-ethyl]-N-(4-morpholin-4-yl-benzyl)-3-(1,3,5-trimethyl-1H-pyrazol-4-yl)-acrylamide], the IC50 is reported as 211 nM.
`O=C(NCCN1CCOCC1)[C@H](Cc1ccccc1)N(Cc1ccc(-c2ccccn2)cc1)C(=O)C=Cc1ccc(C(F)(F)F)cc1` [Example 151] was tested, and the IC50 was 373 nM.

Same assay, conditions: Plasmodium falciparum, K1, read-out: IC50 (nM) on K1
Compound `CCN(CC)CCCC(C)Nc1ccnc2cc(Cl)ccc12` (centres unmarked) [Chloroquine] has an IC50 of 194 nM.
